Calls of active or inactive are those of the source. The calls are words filed in the database; no cut-off is given here.
Experiments:
[1] = Antiproliferative activity against human p53 +/+ HCT116 cells measured after 72 hrs by MTS assay; assay type: functional; details: HCT-116, 72 h
[2] = Antiproliferative activity against human p53 -/- HCT116 cells measured after 72 hrs by MTS assay; assay type: functional; details: HCT-116, 72 h
[3] = tested on: HepG2; experiment: Antiproliferative activity against human HepG2 cells expressing wild-type P53 measured after 72 hrs by MTS assay; assay type: functional; details: HepG2, 72 h
[4] = Antiproliferative activity against human SW620 cells expressing P53 mutant measured after 72 hrs by MTS assay; assay type: functional; details: SW-620, 72 h
[5] = Metabolic stability at human plasma assessed as compound degradation at 37 degC after 72 hrs by HPLC analysis; assay type: ADME, cell-free; details: read-out: Drug degradation
[6] = tested on: HCT-116; experiment: Induction of apoptosis in human p53 +/+ HCT116 cells assessed as activation of caspase3 at 5 or 10 uM after 24 hrs by Caspase-Glo 3/7 assay; assay type: functional, cell-based
[7] = Half life in Sprague-Dawley rat liver microsomes at 37 degC in presence of NADPH generating system by HPLC analysis; assay type: ADME
[8] = Chemical stability in phosphate buffer at pH 7.4 and 37 degC measured for 3 days by HPLC analysis; assay type: physicochemical; details: pH 7.4, 72 h
[9] = tested on: HCT-116; experiment: Induction of apoptosis in human p53 +/+ HCT116 cells assessed as increase in PARP cleavage at 5 or 10 uM after 24 hrs by western blot analysis; assay type: functional, cell-based
[10] = molecular target: Cellular tumor antigen p53 (Homo sapiens) (UniProt P04637); experiment: Induction of p53 phosphorylation at serine-15 in human p53 +/+ HCT 116 cells bat 5 or 10 uM after 24 hrs by western blot analysis; assay type: cell-based
Chain of Cellular tumor antigen p53 (Homo sapiens) (P04637 whole entry, looked up): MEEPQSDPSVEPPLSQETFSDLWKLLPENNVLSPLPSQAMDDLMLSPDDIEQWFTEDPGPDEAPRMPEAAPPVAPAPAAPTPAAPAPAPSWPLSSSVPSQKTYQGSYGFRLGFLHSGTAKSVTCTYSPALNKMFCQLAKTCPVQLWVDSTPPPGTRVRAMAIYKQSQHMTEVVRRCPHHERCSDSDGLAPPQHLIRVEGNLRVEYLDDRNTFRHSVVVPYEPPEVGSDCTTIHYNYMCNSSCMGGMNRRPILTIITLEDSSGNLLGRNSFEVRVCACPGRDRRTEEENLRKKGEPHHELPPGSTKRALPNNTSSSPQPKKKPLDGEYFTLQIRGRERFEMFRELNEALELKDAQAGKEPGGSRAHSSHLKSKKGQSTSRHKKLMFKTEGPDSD

[11] = tested on: HCT-116; experiment: Induction of apoptosis in human p53 +/+ HCT116 cells assessed as activation of caspase7 at 5 or 10 uM after 24 hrs by Caspase-Glo 3/7 assay; assay type: functional, cell-based

Structure (SMILES) | GI50 [1] [µM] | GI50 [2] [µM] | further results
Cc1ccc(C2=NO[C@@]3(C(=O)Nc4cc(Cl)ccc43)N2c2ccccc2)cc1 | 50.6 | – | –
O=C1Nc2ccc(Cl)cc2[C@]12ON=C(c1ccc(Cl)cc1)N2c1ccc(Cl)cc1 | 17.6 | 18 | –
O=C1Nc2cc(Cl)ccc2[C@]12ON=C(c1cccc(Cl)c1)N2c1cccc(Cl)c1 | 6.6 | 7.8 | GI50 [3]: 4.4 µM; GI50 [4]: 6.7 µM
O=C1Nc2ccc(Br)cc2[C@]12ON=C(c1ccccc1)N2c1ccc(Cl)cc1 | 21.9 | 25.8 | –
O=C1Nc2cc(Cl)ccc2[C@]12ON=C(c1ccccc1)N2c1ccc(Cl)cc1 | 31.8 | – | –
O=C1Nc2ccccc2[C@]12ON=C(c1cccc(Cl)c1)N2c1ccc(Cl)cc1 | 38.4 | – | –
O=C1Nc2cc(Cl)ccc2[C@]12ON=C(c1ccc(Cl)cc1)N2c1ccccc1 | 26.5 | 30.6 | –
O=C1Nc2cc(Cl)ccc2[C@]12ON=C(c1ccc(Cl)cc1)N2c1cccc(Cl)c1 | 20.2 | – | –
O=C1Nc2ccccc2[C@]12ON=C(c1ccc(Cl)cc1)N2c1ccc(Cl)cc1 | 31.2 | – | –
O=C1Nc2ccc(Br)cc2[C@]12ON=C(c1ccccc1)N2c1cccc(Cl)c1 | 4.7 | 7.5 | GI50 [3]: 3.5 µM; GI50 [4]: 4.2 µM
O=C1Nc2cc(Cl)ccc2[C@]12ON=C(c1ccccc1)N2c1ccccc1 | 28.4 | 35.5 | –
O=C1Nc2ccc(Br)cc2[C@]12ON=C(c1ccccc1)N2c1ccccc1 | 13.5 | – | –
O=C1Nc2ccc(Br)cc2[C@]12ON=C(c1cccc(Cl)c1)N2c1cccc(Cl)c1 | 2 | 2.9 | metabolised at 72 h [5]: 38%; Activity [6]: Active; half-life [7]: 33.5 min; Stability [8]: Stable; GI50 [3]: 2.1 µM; Activity [9]: Active; Activity [10]: inactive; Activity [11]: Active; GI50 [4]: 2.1 µM
O=C1Nc2ccc(Cl)cc2[C@]12ON=C(c1ccccc1)N2c1cccc(Cl)c1 | 26.4 | 41.6 | –
O=C1Nc2ccccc2[C@]12ON=C(c1ccc(Cl)cc1)N2c1cccc(Cl)c1 | 33.7 | – | –
O=C1Nc2ccc(Br)cc2[C@]12ON=C(c1cccc(Cl)c1)N2c1ccc(F)c(Cl)c1 | 6.6 | 7.2 | GI50 [3]: 4 µM; GI50 [4]: 6.7 µM

Structure (SMILES) | GI50 [1] [µM] | GI50 [2] [µM] | further results
O=C1Nc2ccccc2[C@]12ON=C(c1cccc(Cl)c1)N2c1cccc(Cl)c1 | 32.6 | – | –
O=C1Nc2ccc(Cl)cc2[C@]12ON=C(c1ccccc1)N2c1ccccc1 | 39.1 | – | –
O=C1Nc2ccc(Cl)cc2[C@]12ON=C(c1cccc(Cl)c1)N2c1ccc(Cl)cc1 | 21.3 | 21.8 | –
O=C1Nc2ccc(Br)cc2[C@]12ON=C(c1cccc(Cl)c1F)N2c1cccc(Cl)c1 | 3.2 | 4.4 | GI50 [3]: 2.5 µM; GI50 [4]: 3.5 µM
COc1ccc(C2=N[C@@H](c3ccc(Cl)cc3)[C@@H](c3ccc(Cl)cc3)N2C(=O)N2CCNC(=O)C2)c(OC(C)C)c1 [NUTLIN-3] | 4 | 47.8 | –
O=C1Nc2ccc(Cl)cc2[C@]12ON=C(c1cccc(Cl)c1)N2c1cccc(Cl)c1 | 4.6 | 6.8 | GI50 [3]: 3.3 µM; GI50 [4]: 3.9 µM
O=C1Nc2ccc(Cl)cc2[C@]12ON=C(c1ccccc1)N2c1ccc(Cl)cc1 | 27.1 | 27 | –
O=C1Nc2ccccc2[C@]12ON=C(c1ccccc1)N2c1ccc(F)cc1 | 99.6 | – | –
O=C1Nc2ccccc2[C@]12ON=C(c1ccccc1)N2c1cccc(Cl)c1 | 70.1 | – | –
O=C1Nc2ccc(Br)cc2[C@]12ON=C(c1ccc(Cl)cc1)N2c1cccc(Cl)c1 | 7.7 | 12.3 | GI50 [3]: 4.1 µM; GI50 [4]: 8 µM
O=C1Nc2ccc(Br)cc2[C@]12ON=C(c1cccc(Cl)c1)N2c1cccc(Cl)c1F | 1.7 | 2 | GI50 [3]: 1.2 µM; GI50 [4]: 2 µM
O=C1Nc2ccc(Cl)cc2[C@]12ON=C(c1ccc(Cl)cc1)N2c1cccc(Cl)c1 | 25.6 | 29 | –
O=C1Nc2ccc(Br)cc2[C@]12ON=C(c1cccc(Br)c1)N2c1cccc(Br)c1 | 3.2 | 6 | GI50 [3]: 2.2 µM; GI50 [4]: 3.7 µM
O=C1Nc2cc(Cl)ccc2[C@]12ON=C(c1cccc(Cl)c1)N2c1ccc(Cl)cc1 | 28.7 | – | –
O=C1Nc2ccccc2[C@]12ON=C(c1ccccc1)N2c1ccc(Cl)cc1 | 54.5 | – | –
O=C1Nc2cc(Cl)ccc2[C@]12ON=C(c1ccc(Cl)cc1)N2c1ccc(Cl)cc1 | 13.2 | – | –

— ChEMBL document CHEMBL3797025, “Spirooxadiazoline oxindoles with promising in vitro antitumor activities” (Medchemcomm, 2016)
